Experimental data reported in ChEMBL document CHEMBL2157931, “Discovery of a novel series of inhibitors of lymphoid tyrosine phosphatase with activity in human T cells” (J Med Chem, 2011).
Activity calls are given as the source filed them. The rule behind the calls is not given here.

What was measured:
[1] = molecular target: T1, Tyrosine-protein phosphatase non-receptor type 7 (Homo sapiens, UniProt P35236)
T1 sequence (P35236 whole entry): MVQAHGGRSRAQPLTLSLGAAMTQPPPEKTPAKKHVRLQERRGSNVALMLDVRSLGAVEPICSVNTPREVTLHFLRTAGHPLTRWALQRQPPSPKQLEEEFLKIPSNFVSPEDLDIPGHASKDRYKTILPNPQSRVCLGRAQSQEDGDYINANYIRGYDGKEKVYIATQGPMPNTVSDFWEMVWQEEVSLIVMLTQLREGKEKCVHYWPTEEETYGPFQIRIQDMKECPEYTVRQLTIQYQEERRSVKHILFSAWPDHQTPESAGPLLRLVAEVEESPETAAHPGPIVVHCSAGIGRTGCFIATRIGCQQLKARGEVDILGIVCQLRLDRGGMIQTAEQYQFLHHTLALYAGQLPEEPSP
Description: Inhibition of HePTP expressed in Escherichia coli BL21 using pNPP substrate

[2] = molecular target: T2, Tyrosine-protein phosphatase non-receptor type 22 (Homo sapiens, UniProt Q9Y2R2)
T2 sequence (Q9Y2R2 whole entry): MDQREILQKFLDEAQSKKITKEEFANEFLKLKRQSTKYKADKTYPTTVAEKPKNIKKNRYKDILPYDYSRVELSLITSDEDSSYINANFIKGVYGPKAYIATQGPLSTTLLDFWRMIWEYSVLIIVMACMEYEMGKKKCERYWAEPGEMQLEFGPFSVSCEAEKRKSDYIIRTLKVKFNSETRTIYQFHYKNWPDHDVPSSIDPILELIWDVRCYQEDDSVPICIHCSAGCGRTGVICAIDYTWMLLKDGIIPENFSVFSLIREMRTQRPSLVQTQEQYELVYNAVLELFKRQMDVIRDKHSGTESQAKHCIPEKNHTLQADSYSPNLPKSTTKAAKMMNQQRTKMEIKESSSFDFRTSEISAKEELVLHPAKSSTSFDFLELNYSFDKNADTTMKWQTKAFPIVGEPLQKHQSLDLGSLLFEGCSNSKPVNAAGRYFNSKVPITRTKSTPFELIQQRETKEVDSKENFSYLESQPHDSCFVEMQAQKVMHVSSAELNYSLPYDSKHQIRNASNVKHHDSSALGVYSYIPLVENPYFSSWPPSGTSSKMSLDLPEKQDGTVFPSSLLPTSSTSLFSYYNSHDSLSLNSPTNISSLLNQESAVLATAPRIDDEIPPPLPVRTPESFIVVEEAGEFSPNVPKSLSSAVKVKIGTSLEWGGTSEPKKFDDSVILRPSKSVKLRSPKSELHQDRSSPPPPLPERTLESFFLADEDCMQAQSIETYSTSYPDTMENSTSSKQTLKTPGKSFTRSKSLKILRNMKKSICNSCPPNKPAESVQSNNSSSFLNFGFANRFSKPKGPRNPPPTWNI
Description: Inhibition of LYP expressed in Escherichia coli BL21 using pNPP substrate

[3] = molecular target: T3, Tyrosine-protein phosphatase non-receptor type 12 (Homo sapiens, UniProt Q05209)
T3 sequence (Q05209 whole entry): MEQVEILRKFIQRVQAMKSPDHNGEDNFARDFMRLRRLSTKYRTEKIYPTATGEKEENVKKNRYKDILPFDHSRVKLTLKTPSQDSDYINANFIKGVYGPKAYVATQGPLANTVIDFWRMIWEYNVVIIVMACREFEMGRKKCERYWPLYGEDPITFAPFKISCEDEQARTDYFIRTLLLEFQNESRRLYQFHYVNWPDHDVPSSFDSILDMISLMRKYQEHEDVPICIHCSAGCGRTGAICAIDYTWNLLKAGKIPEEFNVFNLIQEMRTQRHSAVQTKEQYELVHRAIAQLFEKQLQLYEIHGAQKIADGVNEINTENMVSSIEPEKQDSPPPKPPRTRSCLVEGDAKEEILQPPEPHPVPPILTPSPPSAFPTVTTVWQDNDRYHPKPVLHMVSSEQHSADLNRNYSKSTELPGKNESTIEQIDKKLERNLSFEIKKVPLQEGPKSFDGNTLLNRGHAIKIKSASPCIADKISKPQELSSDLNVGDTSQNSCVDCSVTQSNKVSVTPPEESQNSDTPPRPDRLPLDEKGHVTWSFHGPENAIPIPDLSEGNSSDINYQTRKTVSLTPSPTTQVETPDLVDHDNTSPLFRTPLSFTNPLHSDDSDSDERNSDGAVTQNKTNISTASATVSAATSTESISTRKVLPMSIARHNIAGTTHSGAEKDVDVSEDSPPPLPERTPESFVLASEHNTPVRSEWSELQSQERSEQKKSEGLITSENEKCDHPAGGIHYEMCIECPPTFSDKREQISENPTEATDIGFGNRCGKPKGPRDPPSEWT
Description: Inhibition of PTP-PEST expressed in Escherichia coli BL21 using pNPP substrate

[4] = molecular target: T4, Low molecular weight phosphotyrosine protein phosphatase (Homo sapiens, UniProt P24666)
T4 sequence (P24666 whole entry): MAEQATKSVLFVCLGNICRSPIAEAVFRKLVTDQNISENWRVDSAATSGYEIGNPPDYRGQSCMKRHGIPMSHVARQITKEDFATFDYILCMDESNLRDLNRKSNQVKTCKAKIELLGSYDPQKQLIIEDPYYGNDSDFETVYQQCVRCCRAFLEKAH
Description: Inhibition of LMPTP-A expressed in Escherichia coli BL21 using pNPP substrate

[5] = molecular target: T2, Tyrosine-protein phosphatase non-receptor type 22; remark: listed apart in the source
[6] = molecular target: T2, Tyrosine-protein phosphatase non-receptor type 22; remark: listed apart in the source
Description: Inhibition of LYP expressed in Escherichia coli BL21 using increasing levels of ARLIED-NEpYTAREG substrate

[7] = molecular target: T5, Tyrosine-protein phosphatase non-receptor type 22 (Mus musculus) (UniProt P29352); test: Inhibition of LYP in anti-CD3 and antiCD28 antibody-stimulated C57BL/6 mouse CD4+ splenocytes assessed as increase in TCR signaling-stimulated CD69 expression at 100 uM incubated for 24 hrs (reference value: 29.2%); design: scale not given: the % may be the effect or the level left
T5 sequence (whole entry): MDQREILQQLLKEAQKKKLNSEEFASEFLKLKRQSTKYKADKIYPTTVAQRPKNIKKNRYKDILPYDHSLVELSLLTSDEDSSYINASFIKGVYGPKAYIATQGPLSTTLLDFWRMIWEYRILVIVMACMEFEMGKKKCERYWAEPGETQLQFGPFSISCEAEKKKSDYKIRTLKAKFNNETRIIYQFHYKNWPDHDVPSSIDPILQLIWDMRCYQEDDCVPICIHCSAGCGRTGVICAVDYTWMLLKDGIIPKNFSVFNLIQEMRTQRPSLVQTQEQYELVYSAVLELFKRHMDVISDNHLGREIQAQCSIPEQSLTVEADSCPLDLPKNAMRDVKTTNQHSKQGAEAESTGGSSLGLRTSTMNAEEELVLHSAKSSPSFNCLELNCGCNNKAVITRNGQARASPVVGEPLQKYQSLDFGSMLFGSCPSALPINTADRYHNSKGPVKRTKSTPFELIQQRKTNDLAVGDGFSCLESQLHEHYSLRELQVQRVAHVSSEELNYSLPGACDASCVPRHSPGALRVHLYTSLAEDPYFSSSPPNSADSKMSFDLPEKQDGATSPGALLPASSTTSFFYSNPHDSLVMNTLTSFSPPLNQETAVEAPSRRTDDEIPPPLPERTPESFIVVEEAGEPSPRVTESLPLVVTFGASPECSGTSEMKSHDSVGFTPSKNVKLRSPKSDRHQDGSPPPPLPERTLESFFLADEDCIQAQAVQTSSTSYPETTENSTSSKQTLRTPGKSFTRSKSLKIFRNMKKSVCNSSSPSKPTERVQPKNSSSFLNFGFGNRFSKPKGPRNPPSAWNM

[8] = molecular target: T5, Tyrosine-protein phosphatase non-receptor type 22 (Mus musculus); test: Inhibition of LYP in anti-CD3 and antiCD28 antibody-stimulated C57BL/6 mouse CD8+ splenocytes assessed as increase in TCR signaling-stimulated CD69 expression at 50 uM incubated for 24 hrs (reference value: 5.3%); design: scale not given: the % may be the effect or the level left
[9] = Inhibition of TCR signaling in anti-CD3 and anti-CD4 antibody stimulated mouse Ptpn22-/- T cells assessed as increase in Lck Y394 phosphorylation at 50 uM by Western blotting; conditions: T-cell
[10] = molecular target: T5, Tyrosine-protein phosphatase non-receptor type 22 (Mus musculus); test: Inhibition of LYP in anti-CD3 and antiCD28 antibody-stimulated C57BL/6 mouse CD8+ splenocytes assessed as increase in TCR signaling-stimulated CD69 expression at 100 uM incubated for 24 hrs (reference value: 5.3%); design: scale not given: the % may be the effect or the level left
[11] = molecular target: T5, Tyrosine-protein phosphatase non-receptor type 22 (Mus musculus); test: Inhibition of LYP in anti-CD3 and antiCD28 antibody-stimulated C57BL/6 mouse CD4+ splenocytes assessed as increase in TCR signaling-stimulated CD69 expression at 50 uM incubated for 24 hrs (reference value: 29.2%); design: scale not given: the % may be the effect or the level left
[12] = molecular target: T5, Tyrosine-protein phosphatase non-receptor type 22 (Mus musculus); test: Inhibition of LYP-mediated TCR signaling in anti-CD3 and anti-CD4 antibody stimulated mouse Ptpn22+/+ T cells assessed as increase in Lck Y394 phosphorylation at 50 uM by Western blotting; conditions: T-cell

SMILES	IC50 [1] [µM]	IC50 [2] [µM]	IC50 [3] [µM]	IC50 [4] [µM]	other results
COc1ccc2cc(C#N)c(SCC(=O)Nc3cccc(C)c3C)nc2c1	15	30.5	18	60.9	–
Cc1ccc2[nH]c(=O)c(C(c3nnnn3C3CCCC3)N3CCCCC3)cc2c1 (centres undefined)	> 75	30.9	–	–	–
Cc1ccc(NC(=O)CSc2nc3c(C)c(C)ccc3cc2C#N)cc1C	20	26.6	27.5	53.3	–
CCN1CCN(C(c2cc3cc(C)ccc3[nH]c2=O)c2nnnn2C2CCCC2)CC1 (centres undefined)	–	> 40	–	–	–
COc1ccccc1N1CCN(C(c2cc3cc(C)ccc3nc2O)c2nnnn2C2CCCC2)CC1 (centres undefined)	–	> 40	–	–	–
Cc1ccc2[nH]c(=O)c(C(c3nnnn3C3CCCC3)N3CCN(Cc4ccccc4)CC3)cc2c1 (centres undefined)	–	> 40	–	–	–
Cc1cccc2cc(C#N)c(SCC(=O)Nc3cccc(Cl)c3)nc12	22	27.2	28	> 90	–
Cc1ccc2[nH]c(=O)c(C(c3nnnn3C3CCCC3)N3CCN(C)CC3)cc2c1 (centres undefined)	–	> 40	–	–	–
Cc1ccc2cc(C#N)c(SCC(=O)Nc3ccc4c(c3)OCO4)nc2c1	12	23.3	36	> 90	–
Cc1ccc2cc(C#N)c(SCC(=O)NC3CCCCC3)nc2c1C	8	19.8	21	45.3	–
Cc1ccc2[nH]c(=O)c(C(c3nnnn3C3CCCC3)N3CCN(c4ccc(F)cc4)CC3)cc2c1 (centres undefined)	–	30.5	–	–	–
Cc1ccc2sc(NC(=O)c3sc4ccccc4c3Cl)nc2c1	8	29.5	14	> 90	–
Cc1ccc2[nH]c(=O)c(C(c3nnnn3C3CCCC3)N3CCN(c4nc5ccccc5s4)CC3)cc2c1 (centres undefined)	–	30	–	–	–
Cc1ccc2[nH]c(=O)c(C(c3nnnn3C3CCCC3)N3CCC(C)CC3)cc2c1 (centres undefined)	–	20.6	–	–	–
Cc1ccc2[nH]c(=O)c(C(c3nnnn3C3CCCC3)N3CCN(c4ccccc4)CC3)cc2c1 (centres undefined)	–	30.7	–	–	–
COc1ccc(-n2ncc3c(SCC(=O)N4c5ccccc5CC4C)ncnc32)cc1 (centres undefined)	–	–	> 40	> 90	–
CCOc1ccc(NC(=O)CSc2nc3c(C)cc(C)cc3cc2C#N)cc1	16	28.1	16	> 90	–
Cc1ccc2[nH]c(=O)c(C(c3nnnn3C3CCCC3)N3CCN(C(c4ccccc4)c4ccccc4)CC3)cc2c1 (centres undefined)	–	–	–	–	Ki [5]: 21.3 µM; Ki [6]: 11 µM
Cc1ccc2[nH]c(=O)c(C(c3nnnn3C3CCCC3)N3CCCC4(CCCCC4)C3)cc2c1 (centres undefined)	–	–	–	–	Activity [7]: 38.9%; Activity [8]: 12.1%; inhibition [9]: inactive; Activity [10]: 13.7%; Activity [11]: 36.8%; inhibition [12]: Active
Cc1ccc2[nH]c(=O)c(C(c3nnnn3-c3ccccc3)N3CCCC4(CCCCC4)C3)cc2c1 (centres undefined)	–	11.2	–	–	–
Cc1ccc2[nH]c(=O)c(C(c3nnnn3C3CCCC3)N3CCN(C4CCCCC4)CC3)cc2c1 (centres undefined)	–	> 40	–	–	–
Cc1ccc2[nH]c(=O)c(C(c3nnnn3C3CCCC3)N3CCN(c4ccc(O)cc4)CC3)cc2c1 (centres undefined)	–	> 40	–	–	–
COc1ccc(N2CCN(C(c3cc4cc(C)ccc4[nH]c3=O)c3nnnn3C3CCCC3)CC2)cc1 (centres undefined)	–	31.5	–	–	–
Cc1ccc2[nH]c(=O)c(C(c3nnnn3C(C)C)N3CCCC4(CCCCC4)C3)cc2c1 (centres undefined)	–	21.2	–	–	–
Cc1ccc2[nH]c(=O)c(C(c3nnnn3C3CCCC3)N(Cc3ccccc3)Cc3ccccc3)cc2c1 (centres undefined)	–	13.3	–	–	–
